Laboratory results from US5827720A, “α-glucosidase, and a process for producing the same” (priority 1995, dated 1998).

These compounds were tested on α-glucosidase (the present enzyme) from Bacillus sp. KS-108a (FERM BP-5337) (assay: not given). Settings: 0.01 ml of 22 mM inhibitor added to 0.1 ml enzyme in 100 mM HEPES-NaOH pH 7.0 with 0.2% BSA, 25° C., 1 hour; then diluted 100-fold, activity on PNPG; control = 100.
Format: biochemical
Experimental: (§1) First, 0.25 ml of Solution 1 and 0.5 ml of Solution 2 were mixed and pre-incubated at 37° C. for 5 minutes, and then the solution was mixed with 0.25 ml enzyme solution (about 0.005 to 0.03 U/ml) and reacted accurately for 15 minutes at 37° C.
(§2) Then, the reaction was stopped by adding 1 ml of Solution 3 to the reaction solution and the paranitrophenol thus formed was colored. This sample was measured for absorbance at 400 nm in a spectrophotometer (U-2000A, Hitachi Ltd.).
The effect of treatment with various inhibitors was evaluated in the following manner.
0.1 ml of 0.0667 mg/ml of the present enzyme in 100 mM HEPES-NaOH buffer, pH 7.0 containing 0.2% BSA was added to 0.01 ml of 22 mM inhibitor (1.1% in the case of a surfactant as inhibitor) and incubated at 25° C. for 1 hour. Then, the sample was diluted 100-fold with 10 mM potassium phosphate buffer (pH 7.0) containing 0.2% BSA, and the remaining activity was determined in the same manner as above in titer measurement.

In order of falling “remaining activity (%)” value:
1. CCN1C(=O)C=CC1=O [N-ethylmaleimide]  107.5%
2. O[C@H](CS)[C@H](O)CS (racemic) [dithiothreitol]  105.4%
3. [N-]=[N+]=[N-] [sodium azide]  105.0%
4. O=C(O)c1ccccc1[N+](=O)[O-] [2-nitrobenzoic acid]  102.7%
5. OCCS [2-mercaptoethanol]  99.6%
6. c1cnc2c(c1)ccc1cccnc12 [o-phenanthroline]  99.4%
7. O=C(O)c1cc[c]([Hg][Cl])cc1 [PCMB, p-chloromercuribenzoic acid]  97.7%

Same assay, conditions: 22 mM inhibitor stock, 25° C., 1 hour

CCN1C(=O)C=CC1=O [N-ethylmaleimide] was tested, and the “effect of treatment with inhibitor on the enzyme (in words)” value was “not affected”.
For O=C(O)c1cc[c]([Hg][Cl])cc1 [PCMB, p-chloromercuribenzoic acid], the “effect of treatment with inhibitor on the enzyme (in words)” value was “not affected”.

Same assay, conditions: pH 7

In order of rising “remaining activity (%)” value:
1. O=C(O)CI [monoiodoacetic acid]  98.5%
2. N[C@@H](CCC(=O)N[C@@H](CS)C(=O)NCC(=O)O)C(=O)O [glutathione]  102.5%
3. O=C(O)CN(CCN(CC(=O)O)CC(=O)O)CC(=O)O [EDTA-2Na]  106.4%

The compounds below were run on α-glucosidase (the present enzyme) from Bacillus sp. KS-108a (FERM BP-5337) (assay: Km value by Lineweaver-Burk plotting). Settings: pH 7.0, 37° C., read-out: Km (PNPG as substrate).
Format: biochemical
Experimental: The measurement of the titer of the present enzyme was carried out in the following manner. The amount of the enzyme causing 1 μ mol paranitrophenol per minute to be released from PNPG was assumed as 1 U of the enzyme. (Preparation of a substrate solution, a buffer, a reaction terminating solution, and an enzyme diluent)
as §1, §2

In the case of O=[N+]([O-])c1ccc(O[C@H]2O[C@H](CO)[C@@H](O)[C@H](O)[C@H]2O)cc1 [PNPG, paranitrophenyl-α-D-glucopyranoside], the Km is reported as 55 µM.
